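Five concentrations, 48 hours, 96-well plates. Abbreviation: GI50, concentration required for 50% inhibition of growth. TGI is the concentration that stops growth completely.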
Legend:
Assay in all cases: inhibition of tumour cell growth, NCI panel, 48 h
[1] = tested on: MDA-N
[2] = tested on: K-562 leukemia
[3] = tested on: COLO 205 colon
[4] = tested on: MCF7 breast
[5] = tested on: DU-145 prostate
[6] = tested on: SNB-19 CNS
[7] = tested on: LOX IMVI melanoma
[8] = tested on: UO-31 renal
[9] = tested on: OVCAR-3 ovarian

Compound	TGI [1] [µM]	TGI [2] [µM]	TGI [3] [µM]	TGI [4] [µM]	TGI [5] [µM]	TGI [6] [µM]	TGI [7] [µM]	TGI [8] [µM]	TGI [9] [µM]	GI50 [2] [µM]	GI50 [6] [µM]	GI50 [7] [µM]	GI50 [8] [µM]	GI50 [9] [µM]	GI50 [4] [µM]	GI50 [5] [µM]
COc1ccc(-c2c3c(n(C4OC(CO)C(O)C(O)C4O)c(=S)c2C#N)CCC3)cc1 (centres undefined)	> 100	> 100	> 100	> 100	> 100	> 100	> 100	> 100	69.6							
COc1ccc(OC2OC(CO)C(OCc3ccccc3)C(OCc3ccccc3)C2OCc2ccccc2)cc1 (centres undefined)	> 100	> 100	> 100	> 100	> 100	> 100	> 100	> 100	> 100							
COC(=O)C1CCc2sc3ncnc(Nc4cn[nH]c4C(=O)Nc4ccc(CN5CCN(C)CC5)cc4)c3c21 (centres undefined)		4.15				> 100	1.79	9.51	2.04	0.254	0.712	0.405	0.455	0.334		
C1=C2C3=[N+](CCCCC3)CC2Cc2ccsc21 (centres undefined)	> 100	> 100	> 100	> 100	> 100	> 100	> 100	> 100	> 100							
COc1ccc2nc(/C(N)=C\C#N)ccc2c1	> 100	> 100	> 100	> 100	> 100	> 100	> 100	> 100	> 100							
COc1ccc(C2C3=C(COC3=O)Oc3cc4c(cc32)OCO4)c(OC)c1 (centres undefined)		87.3	> 100	> 100	> 100	> 100	> 100	> 100	58.7							
CCOc1ccc(Nc2nc(N)nc(N)c2N)cc1	13.3	50.1	70.2	38.1	> 100	93.4	> 100	74.3	> 100							
CS(=O)(=O)Nc1ccc2c(c1)N(S(C)(=O)=O)CC2CCl (centres undefined)		> 100	> 100	> 100	> 100		> 100	> 100	> 100							
CC1CCC2(NC1)OC1CC3C4CC=C5CC(OC6OC(CO)C(OC7OC(C)C(O)C(O)C7O)C(O)C6OC6OC(C)C(O)C(O)C6O)CCC5(C)C4CCC3(C)C1C2C (centres undefined)	4.99	28.7	35.4	4.88	8.61	28.3	19.9	21.1	4.09							
Cc1cc(C)c(S(=O)(=O)N(CCCN)OCCCON(CCCN)S(=O)(=O)c2c(C)cc(C)cc2C)c(C)c1	3.51	> 22.5	3.5	3.41	3.15	3.17	3.11	30.4	4.26							
CSC(SC)=C(C(=O)O)P(=O)(O)O	> 100		> 100	> 100	> 100	> 100	> 100		> 100							
CC(C)C(CC(=O)OCC(CO)OC(=O)CC(C(C)C)C(C)C)C(C)C (centres undefined)	30.1	33	20	33.5	28.7	28.4		30.1	27.2							
Nc1nc(Cl)cc(NCC2(O)CC2)n1	> 100	> 100		> 100	> 100	> 100	> 100	> 100	> 100							
O=C1N=C2SC(=S)NC(=S)N2NC12c1ccccc1-c1ccccc12	> 10	> 10	> 10	> 10	> 10		> 10	> 10								
COc1cccc2c1C(=O)c1c(O)c3c(c(O)c1C2=O)C[C@H](O)C[C@@H]3OC1CC(N)C(O)C(C)O1 (some centres undefined)		10.1	10.3	21.2	11.6	15.2	2.92	19.7	7.34							
CC(C)(C)OC(=O)NC(Cc1ccccc1)NC(=O)NC(=O)OCc1ccccc1 (centres undefined)	> 100	> 100		> 100	> 100	> 100		> 100	> 100							
COc1ccccc1CN=C1Nc2ccncc2S(=O)(=O)N1c1ccccc1		> 100	> 100	> 100	> 100	> 100	> 100	> 100	> 100							
N#C/C(=C/n1c(=S)[nH]c2ccc([N+](=O)[O-])cc21)C(N)=O	> 100		> 100	> 100	> 100	> 100	> 100	> 100	> 100							
NC(=O)c1csc(C2(O)COC(CO)C2O)n1 (centres undefined)	> 100		> 100	> 100	> 100	> 100	> 100	> 100	> 100							
Cc1[nH]c(=O)nc(NCCNCCO)c1C(=O)Nc1cccc2cc3ccccc3cc12	> 100	> 100	> 100	> 44	> 100	> 100	> 100		> 100							
O=C1C=CC(=O)N1n1c(-c2ccccc2)n[nH]c1=O	> 100	> 100	> 100	> 100	> 100				> 100							
O=c1c(Cc2ccc(Cl)cc2)nnc2sc(-c3ccc(-c4ccc(F)c(Cl)c4)o3)nn12	> 100	> 100	> 100	> 100	> 100	> 100	> 100	> 100								
COc1cc(-c2n/c(=C\c3c(O)[nH]c4ccc(Cl)cc34)cc3c2=Nc2ccccc2-3)ccc1F		5.98		3.26	4.8	4.11		2.5	4.06	2.22	1.87		1.12	1.98	1.25	2.18
Cc1cc(S(=O)(=O)/N=C(/C(=C=[N-])C#N)[n+]2ccc(N(C)C)cc2)c(SCC(=O)O)cc1Cl	> 100	> 100	> 100	> 100	> 100	> 100		> 100	> 100							
